Measured values published in publication PMC11530130, “Peripherally restricted PICK1 inhibitor mPD5 ameliorates pain behaviors in murine inflammatory and neuropathic pain models” (JCI Insight, 2024).
Where “and” joins values, the source holds several entries; their conditions need not be identical. Identical values can stand only once.

Test system: mice, CFA model of inflammatory pain
Assay: Single exposure place preference (sePP), CFA mice
Format: in vivo, mouse
Set-up: time spent in the paired compartment, individual mice: reference not given here
Protocol: On days 6-8, the escape hole was moved
90 degrees, and all mice went through the second bout of training. On day nine, a second probe trial was performed testing the reversal learning of the mice.
Cancer induced bone pain was induced as described in the “Induction of cancer induced bone pain (CIBP model)"-section. For the assessment of limb use, all mice from one cage were placed in an empty transparent plastic box and left for ten min to habituate. One mouse at a time was moved by tunnel handling or scooping to an identical plastic box for the limb use test. […]
gait, 3 Insignificant limping, 2 Significant limping and shift in bodyweight towards the healthy limb 1 Significant limping and partial lack of use of ipsilateral leg 0 Total lack of use of ipsilateral leg. A score of 0 was used as a humane endpoint. Urine and faeces were cleaned from the plastic box with a dry paper towel between mice from the same cage, and a new plastic box was used for mice from different cages. The limb use test was video filmed for later […]
Assessment of static weight bearing. […]
Initial perception of the drugs was measured by single exposure place preference experiments performed in an elongated three compartment apparatus (67.5 cm x 24 cm) with a biased design of different floor textures and wall patterns and a neutral zone in the middle. […]

SMILES: CCCCCCCCCCCCCC(=O)N(CCOCCOCCC(=O)N[C@@H](Cc1c[nH]cn1)C(=O)N[C@@H](Cc1c[nH]c2ccccc12)C(=O)N[C@@H](CC(C)C)C(=O)N[C@@H](CCCCN)C(=O)N[C@H](C(=O)O)C(C)C)CCOCCOCCC(=O)N[C@@H](Cc1c[nH]cn1)C(=O)N[C@@H](Cc1c[nH]c2ccccc12)C(=O)N[C@@H](CC(C)C)C(=O)N[C@@H](CCCCN)C(=O)N[C@H](C(=O)O)C(C)C [mPD5, myristoyl-NPEG4-(HWLKV)2]
- time in the paired compartment compared with the PBS animals (sePP) (CFA animals, s.c. 30 μmol/kg in the gray (paired) compartment): significantly more time in the paired compartment
- time spent in the paired compartment, individual mice (CFA mice conditioned with 30 μmol/kg): 1.043 and 0.9432 and 1.1179 and 0.8953 and 1.389 and 1.4664 and 0.991 and 1.199 and 1.802 and 0.8487 and 1.092 and 1.425
